Data taken from patent US11613522B2, “Herbicidally active 3-phenylisoxazoline-5-carboxamides of tetrahydro- and dihydrofurancarboxamides” (BAYER AKTIENGESELLSCHAFT, priority 2017, dated 2023).

What was measured:
Type in all cases: in vivo
[1] = test system: Polygonum convolvulus; assay: Pre-emergence herbicidal activity against POLCO; conditions: dosage 80 g/ha, scored visually after about 3 weeks vs untreated controls; for pest or weed control at 80 g/ha: Fallopia convolvulus, 504 h
Excerpt: (§1) 1. Pre-emergence herbicidal action against harmful plants and crop plant compatibility Seeds of monocotyledonous and dicotyledonous weed plants and crop plants are placed in plastic or wood fiber pots and covered with soil. The compounds of the invention, formulated in the form of wettable powders (WP) or as emulsion concentrates (EC), are then applied onto the surface of the covering soil as aqueous suspension or emulsion with addition of 0.5% additive at a water application rate of 600 l/ha (converted). After the treatment, the pots are placed in a greenhouse and kept under good growth conditions for the trial plants. After about 3 weeks, the effect of the preparations is scored visually in comparison with untreated controls as percentages. For example, 100% activity=the plants have died, 0% activity=like control plants. [table]

[2] = test system: Stellaria media; assay: Pre-emergence herbicidal activity against STEME; conditions: dosage 80 g/ha, scored visually after about 3 weeks vs untreated controls
Excerpt: as §1

[3] = test system: Alopecurus myosuroides; assay: Post-emergence herbicidal activity against ALOMY; conditions: dosage 320 g/ha, rated visually after about 3 weeks; for pest or weed control at 320 g/ha: Alopecurus myosuroides, 504 h
Description: (§2) [table] Seeds of monocotyledonous and dicotyledonous weeds and crop plants are placed in sandy loam in plastic or wood-fiber pots, covered with soil and cultivated in a greenhouse under controlled growth conditions. 2 to 3 weeks after sowing, the test plants are treated at the one-leaf stage. The compounds of the invention, formulated in the form of wettable powders (WP) or as emulsion concentrates (EC), are then sprayed onto the green parts of the plants as aqueous suspension or emulsion with addition of 0.5% additive at a water application rate of 600 l/ha (converted). After the test plants had been kept in the greenhouse under optimum growth conditions for about 3 weeks, the activity of the preparations is rated visually in comparison to untreated controls. For example, 100% activity=the plants have died, 0% activity=like control plants.

[4] = test system: Avena fatua; assay: Post-emergence herbicidal activity against AVEFA; conditions: dosage 320 g/ha, rated visually after about 3 weeks; for pest or weed control at 320 g/ha: Avena fatua, 504 h
Description: as §2

[5] = test system: Echinochloa crus-galli; assay: Post-emergence herbicidal activity against ECHCG; conditions: dosage 320 g/ha, rated visually after about 3 weeks; for pest or weed control at 320 g/ha: Echinochloa crus-galli, 504 h
Description: as §2

[6] = test system: Setaria viridis; assay: Post-emergence herbicidal activity against SETVI; conditions: dosage 320 g/ha, rated visually after about 3 weeks; for pest or weed control at 320 g/ha: Setaria viridis, 504 h
Description: as §2

[7] = test system: Amaranthus retroflexus; assay: Post-emergence herbicidal activity against AMARE; conditions: dosage 320 g/ha, rated visually after about 3 weeks; for pest or weed control at 320 g/ha: Amaranthus retroflexus, 504 h
Description: as §2

[8] = test system: Pharbitis purpurea; assay: Post-emergence herbicidal activity against PHBPU; conditions: dosage 320 g/ha, rated visually after about 3 weeks; for pest or weed control at 320 g/ha: Ipomoea purpurea, 504 h
Description: as §2

[9] = test system: Polygonum convolvulus; assay: Post-emergence herbicidal activity against POLCO; conditions: dosage 320 g/ha, rated visually after about 3 weeks; for pest or weed control at 320 g/ha: Fallopia convolvulus, 504 h
Description: as §2

[10] = test system: Stellaria media; assay: Post-emergence herbicidal activity against STEME; conditions: dosage 320 g/ha, rated visually after about 3 weeks; for pest or weed control at 320 g/ha: Stellaria media, 504 h
Description: as §2

[11] = test system: Viola tricolor; assay: Post-emergence herbicidal activity against VIOTR; conditions: dosage 320 g/ha, rated visually after about 3 weeks; for pest or weed control at 320 g/ha: Viola tricolor, 504 h
Description: as §2

[12] = test system: Veronica persica; assay: Post-emergence herbicidal activity against VERPE; conditions: dosage 320 g/ha, rated visually after about 3 weeks; for pest or weed control at 320 g/ha: Veronica persica, 504 h
Description: as §2

[13] = test system: Alopecurus myosuroides; assay: Pre-emergence herbicidal activity against ALOMY; conditions: dosage 80 g/ha, scored visually after about 3 weeks vs untreated controls; for pest or weed control at 80 g/ha: Alopecurus myosuroides, 504 h
Excerpt: as §1

[14] = test system: Veronica persica; assay: Pre-emergence herbicidal activity against VERPE; conditions: dosage 80 g/ha
Excerpt: as §1

[15] = test system: Avena fatua; assay: Pre-emergence herbicidal activity against AVEFA; conditions: dosage 80 g/ha, scored visually after about 3 weeks vs untreated controls
Excerpt: as §1

[16] = test system: Lolium rigidum; assay: Pre-emergence herbicidal activity against LOLRI; conditions: dosage 80 g/ha, scored visually after about 3 weeks vs untreated controls
Excerpt: as §1

[17] = test system: Setaria viridis; assay: Pre-emergence herbicidal activity against SETVI; conditions: dosage 80 g/ha, scored visually after about 3 weeks vs untreated controls
Excerpt: as §1

[18] = test system: Amaranthus retroflexus; assay: Pre-emergence herbicidal activity against AMARE; conditions: dosage 80 g/ha, scored visually after about 3 weeks vs untreated controls
Excerpt: as §1

[19] = test system: Viola tricolor; assay: Pre-emergence herbicidal activity against VIOTR; conditions: dosage 80 g/ha, scored visually after about 3 weeks vs untreated controls
Excerpt: as §1

[20] = test system: Hordeum murinum; assay: Pre-emergence herbicidal activity against HORMU; conditions: dosage 80 g/ha
Excerpt: as §1

[21] = test system: Lolium rigidum; assay: Post-emergence herbicidal activity against LOLRI; conditions: dosage 320 g/ha, rated visually after about 3 weeks
Description: as §2

[22] = test system: Abutilon theophrasti; assay: Post-emergence herbicidal activity against ABUTH; conditions: dosage 320 g/ha, rated visually after about 3 weeks
Description: as §2

[23] = test system: Hordeum murinum; assay: Post-emergence herbicidal activity against HORMU; conditions: dosage 320 g/ha, rated visually after about 3 weeks
Description: as §2

Structure (SMILES)	pest or weed control at 320 g/ha [3] [%]	pest or weed control at 320 g/ha [4] [%]	pest or weed control at 320 g/ha [6] [%]	pest or weed control at 320 g/ha [8] [%]	pest or weed control at 320 g/ha [9] [%]	pest or weed control at 320 g/ha [10] [%]	pest or weed control at 320 g/ha [12] [%]	Post-emergence herbicidal activity in % against ALOMY [3] [%]	Post-emergence herbicidal activity in % against AVEFA [4] [%]	Post-emergence herbicidal activity in % against ECHCG [5] [%]	Post-emergence herbicidal activity in % against LOLRI [21] [%]	Post-emergence herbicidal activity in % against SETVI [6] [%]	Post-emergence herbicidal activity in % against ABUTH [22] [%]	Post-emergence herbicidal activity in % against AMARE [7] [%]	Post-emergence herbicidal activity in % against PHBPU [8] [%]	Post-emergence herbicidal activity in % against POLCO [9] [%]	Post-emergence herbicidal activity in % against STEME [10] [%]	Post-emergence herbicidal activity in % against VIOTR [11] [%]	Post-emergence herbicidal activity in % against VERPE [12] [%]	Post-emergence herbicidal activity in % against HORMU [23] [%]	further results
CC1(C(=O)N[C@@H]2CO[C@H](C(=O)N3CCCC3)C2)CC(c2cc(F)cc(F)c2)=NO1 (relative stereo) [Example I-03, 3-(3,5-difluorophenyl)-5-methyl-N-[cis-5-(pyrrolidine-1-carbonyl)tetrahydrofuran-3-yl]-4H-isoxazole-5-carboxamide]	80	90	90	80	80	90	90	–	–	–	–	–	–	–	–	–	–	–	–	–	pest or weed control at 80 g/ha [1]: 80%; pest or weed control at 80 g/ha ([2]; Stellaria media, 504 h): 80%; pest or weed control at 320 g/ha [5]: 80%; pest or weed control at 320 g/ha [7]: 80%; pest or weed control at 320 g/ha [11]: 80%
CC1(C(=O)N[C@@H]2CO[C@H](C(=O)NC3CC3)C2)CC(c2cc(F)cc(F)c2)=NO1 (relative stereo) [Example I-04, N-[cis-5-(cyclopropylcarbamoyl)tetrahydrofuran-3-yl]-3-(3,5-difluorophenyl)-5-methyl-4H-isoxazole-5-carboxamide]	90	100	90	80	80	80	80	–	–	–	–	–	–	–	–	–	–	–	–	–	pest or weed control at 80 g/ha [13]: 80%; pest or weed control at 80 g/ha [1]: 90%; pest or weed control at 320 g/ha [5]: 80%; pest or weed control at 320 g/ha [11]: 80%
C=CC1(C(=O)N[C@@H]2CO[C@H](C(=O)N3CCCC3)C2)CC(c2cc(F)cc(F)c2)=NO1 (relative stereo) [Example I-06, 3-(3,5-difluorophenyl)-N-[cis-5-(pyrrolidin-1-carbonyl)tetrahydrofuran-3-yl]-5-vinyl-4H-isoxazole-5-carboxamide]	90	90	80	80	80	80	80	–	–	–	–	–	–	–	–	–	–	–	–	–	pest or weed control at 320 g/ha [7]: 80%
CC1(C(=O)NC2COCC2C(=O)NC2CC2)CC(c2cc(F)cc(F)c2)=NO1 (centres unmarked) [Example I-08, N-[4-(cyclopropylcarbamoyl)tetrahydrofuran-3-yl]-3-(3,5-difluorophenyl)-5-methyl-4H-isoxazole-5-carboxamide]	90	80	–	80	80	–	80	–	–	–	–	–	–	–	–	–	–	–	–	–	pest or weed control at 80 g/ha [13]: 90%; pest or weed control at 80 g/ha ([14]; Veronica persica, 504 h): 90%
C=CC1(C(=O)NC2COC(C(=O)NC(C)CC(=O)OCC)C2)CC(c2cc(F)cc(F)c2)=NO1 (centres unmarked) [Example I-22]	–	–	–	–	–	–	–	100	100	100	100	90	80	90	90	80	80	80	80	100	Pre-emergence herbicidal activity in % against ALOMY [13]: 100%; Pre-emergence herbicidal activity in % against AVEVA (AVEFA) [15]: 100%; Pre-emergence herbicidal activity in % against LOLRI [16]: 100%; Pre-emergence herbicidal activity in % against SETVI [17]: 100%; Pre-emergence herbicidal activity in % against AMARE [18]: 100%; Pre-emergence herbicidal activity in % against POLCO [1]: 100%; Pre-emergence herbicidal activity in % against STEME [2]: 90%; Pre-emergence herbicidal activity in % against VIOTR [19]: 100%; Pre-emergence herbicidal activity in % against VERPE [14]: 100%; Pre-emergence herbicidal activity in % against HORMU [20]: 100%
C[C@]1(C(=O)N[C@@H]2CO[C@H](C(=O)NCc3ncc(C(F)(F)F)cc3Cl)C2)CC(c2cc(F)cc(F)c2)=NO1 [Example I-27]	–	–	–	–	–	–	–	90	100	100	90	80	–	–	90	80	90	80	80	100	Pre-emergence herbicidal activity in % against ALOMY [13]: 90%; Pre-emergence herbicidal activity in % against AVEVA (AVEFA) [15]: 80%; Pre-emergence herbicidal activity in % against STEME [2]: 90%
CCCS(=O)(=O)NC(=O)[C@@H]1C[C@H](NC(=O)[C@@]2(C)CC(c3cc(F)cc(F)c3)=NO2)CO1 [Example I-28]	–	–	–	–	–	–	–	90	100	90	100	90	80	80	90	80	90	90	90	90	–
C=C[C@]1(C(=O)N[C@@H]2CO[C@H](C(=O)NS(=O)(=O)CCC)C2)CC(c2cc(F)cc(F)c2)=NO1 [Example I-29]	–	–	–	–	–	–	–	90	90	90	90	90	90	90	90	90	90	90	90	90	–
